Assay results from patent US20120289884A1, “Fused Ring Diarylamino Photosensitizers for Phototherapy” (Mallinckrodt LLC, priority 2011, published 2012).
Read-outs that look alike come from different tables or passages of the source.

Tested on: U937 leukemia cancer cell line
Assay: Cell viability (phototoxicity) WST-1 assay with and without UV light;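 further: WST-1 absorbance at 480 and 600 nm after 2 h compound preincubation, 20 min UV irradiation (peak 365 nm) or none, then 24 h recovery at 37 °C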
Details: for IC50: Homo sapiens, U-937, 20 min; for cell viability with increasing concentration of compound, light exposure: 20 minutes light exposure; for activity under the photolytic conditions (in words): UV-A/UV-B light
[1] = read-out: VC50/20, U937 cells, 20 minutes UV light exposure

Method: The compounds were dissolved in DMSO (8 mM) and diluted with the cell culture media such that the amount of the DMSO exposed to the cells remained below 0.5% (64 mM). After light exposure, cell viability is assessed using a WST-1 (4-[3-(4-Iodophenyl)-2-(4-nitrophenyI)-2H-5-tetrazolio]-1, 3-benzene disulfonate) cell proliferation assay (Roche Diagnostics, NJ, USA). At the end of 22 hours, WST-1 is added to each well of plate. After 2 hours of incubation, the metabolic activity is quantified by absorbance measurements at 480nm and 600nm using a Synergy 4 plate reader (BioTEK Instruments, VT, USA). The number of viable cells is determined and percent viability is determined:
Viability measurements are analyzed to provide VC50/20 values which is defined as the concentration at which 50% decrease in cell viability is observed when the cells are exposed to light and the photosensitizes for 20 minutes.
Photoxicity of diarylamines were tested for their photo-toxicity in U937 cells (ATCC,VA) a monocytic leukemia cell line. Cells were cultured, harvested and counted with trypan blue exclusion method to ensure 95% viability. The cells were then plated at a density of 20,000 cells/well in flat bottom 96 well plates and incubated overnight. On the following day, dilutions of the compounds to be screened were prepared in complete RPMI media and added to cells followed by a 2-hour incubation. After the preincubation time, the cells were irradiated for 20 minutes with 100 W UV lamp (Model B-100A, UVP, Upland, Calif.) with peak output at 365 nm and a bandwidth of about 50 nm. The light source was not optimized for each compound with respect to power and wavelength. The total power near the surface of the microtiter plate is about 8 mW. The temperature at the surface of the microtiter plates were kept below 37° C. with external air cooling. After light exposure, cells were allowed to recover at 37° C. in a CO2 incubator for 24 h, and thereafter the viability was assessed using a WST-1 (4-[3-(4-Iodophenyl)-2-(4-nitrophenyl)-2H-5-tetrazolio]-1,3-benzene disulfonate) cell proliferation assay (Roche Diagnostics, NJ, USA). At the end of 22 hours, WST-1 was added to each well of plate. After 2 hours of incubation, the metabolic activity was quantified by absorbance measurements at 480 nm and 600 nm using a Synergy 4 plate reader (BioTEK Instruments, VT, USA). The percent viability was calculated as [OD value of treated cells/mean OD value of control cells]×100%). The percent cell viability assay values were then plotted in Graph Pad Prism (Graph Pad Software Inc, La Jolla, Calif.) and VC50/20 values for each compound was obtained using nonlinear regression analysis of the log inhibitor versus response in a 4 parameter curve fit. Each compound was tested for minimum of n=3. The corresponding control conditions for the cell viability assays were: (a) DMSO only (no photosensitizer), no light; (b) DMSO only (no photosensitizer) light; and (c) photosensitizer, no light (dark toxicity).
A general procedure is carried out for measuring cell viability upon exposure of U937 leukemia cells to a number of diarylamino photosensitizers of the invention and light. U937 cells are harvested and counted with trypan blue exclusion method to ensure viability. The cells are then plated at a density of 20,000 cells/well in flat bottom 96 well plates and incubated overnight. On the following day, dilutions of the compounds to be screened are prepared in complete RPMI media and added to cells followed by a 2 hour incubation. After the preincubation time, cells are exposed to UV light for various times and then allowed to recover at 37° C. in a CO2 incubator for 24 h.
The cell viability analysis is carried out using a human myeloid leukemia U937 cell line by the standard WST-1 assay.

Row | Compound | IC50 (read-out: VC50/20) | IC50 [1] | cell viability with increasing concentration of compound, light exposure (U937 cells) | activity under the photolytic conditions (in words) (U937 cells) | cell viability with increasing concentration of compound, no light exposure (dark toxicity) (U937 cells, no light exposure)
1 | c1ccc2c(c1)[nH]c1ccccc12 [(FX3), carbazole] | 5560 ± 1150 nM | ~5000 nM | substantial decrease in cell viability | moderately active | –
2 | c1ccc(C2c3ccccc3Nc3ccccc32)cc1 [(FX7)] | – | – | – | less active | –
3 | C1=Cc2ccccc2Nc2ccccc21 [(FX8), 5H-Dibenz[b,f]azepine] | 2580 ± 1140 nM | ~2580 nM | substantial decrease in cell viability | very active | –
4 | c1ccc2c(c1)Cc1ccccc1N2 [(FX9), acridan] | 680 ± 110 nM | 680 nM | substantial decrease in cell viability | very potent | no substantial decrease in cell viability
5 | c1ccc2c(c1)Nc1ccccc1S2 [(FX10), phenothiazine] | 1390 ± 110 nM | ~1390 nM | substantial decrease in cell viability | highly active | –
6 | c1ccc2c(c1)Nc1ccccc1O2 [(FX11), Phenoxazine] | 14500 ± 1540 nM | – | substantial decrease in cell viability | weakly active | –
7 | c1ccc(C2c3ccccc3Nc3ccccc32)cc1 [(FX17), 9-phenylacridan] | 170 ± 10 nM | 170 nM | substantial decrease in cell viability | most potent | –
8 | CN1c2ccccc2Cc2ccccc21 [(FX19), N-methylacridan] | – | – | – | decreased the activity | –
9 | c1ccc(Nc2ccccc2)cc1 [(FX20), Diphenylamine] | – | – | – | inactive | –
